These results are taken from ChEMBL document CHEMBL5465560, “Selectivity Literature for EUbOPEN Chemogenomic Library” (2024).

Assay [1] addresses Mitogen-activated protein kinase 8 (Homo sapiens, UniProt P45983). Conditions: at 10 µM.
Assay [2] addresses Focal adhesion kinase 1 (Homo sapiens, UniProt Q05397). Conditions: at 10 µM.
Assay [3] concerns the target T1, Serine/threonine-protein kinase Nek5 (Homo sapiens) (UniProt Q6P3R8).
T1 sequence (whole entry): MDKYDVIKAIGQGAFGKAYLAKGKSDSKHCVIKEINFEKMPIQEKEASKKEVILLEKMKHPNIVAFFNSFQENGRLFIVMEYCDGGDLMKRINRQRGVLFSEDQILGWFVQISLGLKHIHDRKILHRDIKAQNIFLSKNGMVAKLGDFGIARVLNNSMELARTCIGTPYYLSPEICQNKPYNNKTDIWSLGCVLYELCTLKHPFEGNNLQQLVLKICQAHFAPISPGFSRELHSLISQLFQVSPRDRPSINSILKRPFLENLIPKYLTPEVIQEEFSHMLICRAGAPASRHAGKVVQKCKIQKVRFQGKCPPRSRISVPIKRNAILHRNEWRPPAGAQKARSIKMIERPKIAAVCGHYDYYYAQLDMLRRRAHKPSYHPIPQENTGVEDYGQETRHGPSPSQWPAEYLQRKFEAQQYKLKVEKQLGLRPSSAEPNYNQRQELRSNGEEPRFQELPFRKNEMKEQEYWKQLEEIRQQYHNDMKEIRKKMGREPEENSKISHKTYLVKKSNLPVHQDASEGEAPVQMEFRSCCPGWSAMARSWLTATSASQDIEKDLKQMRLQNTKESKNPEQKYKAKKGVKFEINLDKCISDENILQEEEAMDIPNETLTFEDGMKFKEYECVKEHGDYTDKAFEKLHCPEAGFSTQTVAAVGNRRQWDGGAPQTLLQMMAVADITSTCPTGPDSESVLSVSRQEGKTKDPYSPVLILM
Conditions: at 10 µM.

The target in assay [4] is T2, Ephrin type-B receptor 3 (Homo sapiens) (UniProt P54753).
T2 sequence (whole entry): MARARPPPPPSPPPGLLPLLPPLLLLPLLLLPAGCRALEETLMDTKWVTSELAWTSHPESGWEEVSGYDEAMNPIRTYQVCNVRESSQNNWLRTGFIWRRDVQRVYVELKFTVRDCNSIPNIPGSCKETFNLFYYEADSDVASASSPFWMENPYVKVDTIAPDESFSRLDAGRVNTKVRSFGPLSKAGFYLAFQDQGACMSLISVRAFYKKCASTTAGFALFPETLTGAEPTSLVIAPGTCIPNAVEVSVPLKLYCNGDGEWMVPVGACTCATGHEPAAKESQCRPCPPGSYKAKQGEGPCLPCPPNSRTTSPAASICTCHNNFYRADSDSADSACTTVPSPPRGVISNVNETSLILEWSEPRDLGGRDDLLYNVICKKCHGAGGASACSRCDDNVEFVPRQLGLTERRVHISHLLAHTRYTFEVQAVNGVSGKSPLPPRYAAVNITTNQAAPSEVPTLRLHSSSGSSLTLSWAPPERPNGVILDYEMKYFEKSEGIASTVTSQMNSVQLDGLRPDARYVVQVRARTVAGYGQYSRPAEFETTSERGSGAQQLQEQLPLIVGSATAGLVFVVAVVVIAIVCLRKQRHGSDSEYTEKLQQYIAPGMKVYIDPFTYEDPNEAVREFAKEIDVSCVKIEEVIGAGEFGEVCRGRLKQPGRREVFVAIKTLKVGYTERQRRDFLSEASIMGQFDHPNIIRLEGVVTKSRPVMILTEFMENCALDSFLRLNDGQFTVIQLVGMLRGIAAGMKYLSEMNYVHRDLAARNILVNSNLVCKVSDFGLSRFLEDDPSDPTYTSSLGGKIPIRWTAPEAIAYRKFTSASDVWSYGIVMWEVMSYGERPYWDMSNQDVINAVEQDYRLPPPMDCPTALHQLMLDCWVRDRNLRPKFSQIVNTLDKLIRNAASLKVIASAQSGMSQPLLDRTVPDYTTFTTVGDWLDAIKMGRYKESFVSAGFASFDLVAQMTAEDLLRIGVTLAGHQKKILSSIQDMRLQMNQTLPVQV
The note with it: at 10 µM.

Assay [5] deals with Insulin receptor-related protein (Homo sapiens) (UniProt P14616). Nature of the assay: Selectivity interaction (KinomeScan (DiscoverX)) EUB0000695a INSRR. The note with it: at 100 nM.
For assay [6], the target named is Ribosomal protein S6 kinase alpha-1 (Homo sapiens, UniProt Q15418). The assay is described as follows: Selectivity interaction (KinomeScan (DiscoverX)) EUB0000045b RPS6KA1. The note with it: at 1 µM.
In assay [7] the target is Macrophage-stimulating protein receptor (Homo sapiens, UniProt Q04912). Nature of the assay: Selectivity interaction (KinomeScan (DiscoverX)) EUB0000666a MST1R. The note with it: at 10 µM.
Assay [8] concerns the target Serine/threonine-protein kinase MRCK beta (Homo sapiens) (UniProt Q9Y5S2). The assay is described as follows: Selectivity interaction (KinomeScan (DiscoverX)) EUB0000666a CDC42BPB. Conditions: at 10 µM.
In assay [9] the target is Insulin receptor (Homo sapiens, UniProt P06213). Nature of the assay: Selectivity interaction (Kinase panel (Z-LYTE Assay)) EUB0001632a INSR. The note with it: at 10 µM.
Assay [10] deals with Serine/threonine-protein kinase mTOR (Homo sapiens, UniProt P42345). The assay is described as follows: Selectivity interaction (Kinase panel (Z-LYTE Assay)) EUB0001632a MTOR. Conditions: at 10 µM.
Assay [11] addresses Epidermal growth factor receptor (Homo sapiens, UniProt P00533). The assay is described as follows: Selectivity interaction (Rxn Biology Kinase assay) EUB0001632a EGFR. The note with it: at 10 µM.
Assay [12] addresses Ribosomal protein S6 kinase alpha-3 (Homo sapiens, UniProt P51812). Nature of the assay: Selectivity interaction (Kinase panel (Z-LYTE Assay)) EUB0001632a RPS6KA3. The note with it: at 10 µM.
Assay [13] addresses Non-receptor tyrosine-protein kinase TYK2 (Homo sapiens, UniProt P29597). Nature of the assay: Selectivity interaction (ActivX KiNativ screen (kinase selectivity in THP-1 cell lysates)) EUB0000639a TYK2. The assay is classed as subcellular. The note with it: lysate, at 0.01 µM.
Assay [14] addresses Vascular endothelial growth factor receptor 1 (Homo sapiens) (UniProt P17948). The assay is described as follows: Selectivity interaction (Kinase panel (Invitrogen)) EUB0000639a FLT1. Conditions: at 200 nM.
The target of assay [15] is Tyrosine-protein kinase ABL1 (Homo sapiens, UniProt P00519). Nature of the assay: Selectivity interaction (Kinase panel (Enzyme activity assay)) EUB0000612a ABL1.
The target of assay [16] is Bromodomain-containing protein 7 (Homo sapiens) (UniProt Q9NPI1). The assay is described as follows: Selectivity interaction (Human bromodomain panel (DSF assay)) EUB0000233b BRD7.
Assay [17] deals with Mitogen-activated protein kinase 7 (Homo sapiens) (UniProt Q13164). The assay is described as follows: Selectivity interaction (KinomeScan (DiscoverX)) EUB0000595a MAPK7. Conditions: at 10 µM.
The target of assay [18] is Serine/threonine-protein kinase MARK2 (Homo sapiens) (UniProt Q7KZI7). The assay is described as follows: Selectivity interaction (Kinase panel (KiNativ target engagement assay in Jurkat cells)) EUB0001635a MARK2. It counts as cell-based. The note with it: Selectivity number of off-targets 0.0, Selectivity number of targets 233.0, Source Knowledge https://www.sciencedirect.com/science/article/pii/S2451945619300674?via%3Dihub, at 1 µM.

Sequence of Insulin receptor (P06213 28-758 limits assumed): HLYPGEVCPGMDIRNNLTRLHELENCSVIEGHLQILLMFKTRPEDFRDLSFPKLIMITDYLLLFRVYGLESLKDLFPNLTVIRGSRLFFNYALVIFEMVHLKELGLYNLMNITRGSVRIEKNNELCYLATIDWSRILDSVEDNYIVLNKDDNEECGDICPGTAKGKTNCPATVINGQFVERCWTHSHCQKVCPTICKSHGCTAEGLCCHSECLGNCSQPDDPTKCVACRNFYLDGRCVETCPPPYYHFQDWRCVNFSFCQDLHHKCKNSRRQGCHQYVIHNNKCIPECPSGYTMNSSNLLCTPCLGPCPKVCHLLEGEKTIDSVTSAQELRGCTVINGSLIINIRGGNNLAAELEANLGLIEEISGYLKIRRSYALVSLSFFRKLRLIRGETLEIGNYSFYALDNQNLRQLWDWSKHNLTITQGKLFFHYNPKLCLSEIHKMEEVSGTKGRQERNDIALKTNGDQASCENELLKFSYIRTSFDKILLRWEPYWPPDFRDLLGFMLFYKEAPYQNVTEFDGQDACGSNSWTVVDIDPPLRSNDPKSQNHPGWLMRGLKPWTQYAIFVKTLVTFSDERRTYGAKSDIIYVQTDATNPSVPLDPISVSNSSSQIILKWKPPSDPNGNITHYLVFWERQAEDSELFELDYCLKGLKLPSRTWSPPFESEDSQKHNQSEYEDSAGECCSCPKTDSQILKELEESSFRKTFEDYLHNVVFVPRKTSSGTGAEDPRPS
Sequence of Insulin receptor (P06213 763-1382 limits assumed): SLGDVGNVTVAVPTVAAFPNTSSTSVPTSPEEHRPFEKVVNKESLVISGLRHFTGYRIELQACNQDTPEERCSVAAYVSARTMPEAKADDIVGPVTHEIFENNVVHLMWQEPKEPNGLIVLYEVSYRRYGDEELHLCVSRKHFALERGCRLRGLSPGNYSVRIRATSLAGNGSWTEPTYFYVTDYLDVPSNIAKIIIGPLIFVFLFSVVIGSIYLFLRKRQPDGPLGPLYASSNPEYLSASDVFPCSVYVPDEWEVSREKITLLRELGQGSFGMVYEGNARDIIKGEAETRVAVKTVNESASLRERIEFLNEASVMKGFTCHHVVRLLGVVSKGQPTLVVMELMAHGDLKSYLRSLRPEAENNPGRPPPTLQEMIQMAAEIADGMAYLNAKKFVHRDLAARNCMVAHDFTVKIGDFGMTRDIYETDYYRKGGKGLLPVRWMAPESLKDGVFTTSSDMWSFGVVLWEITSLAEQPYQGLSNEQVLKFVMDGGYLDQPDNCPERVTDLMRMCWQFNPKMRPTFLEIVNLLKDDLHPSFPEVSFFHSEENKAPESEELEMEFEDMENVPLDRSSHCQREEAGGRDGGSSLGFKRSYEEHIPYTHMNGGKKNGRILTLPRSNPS
Sequence of Tyrosine-protein kinase ABL1 (P00519 whole entry): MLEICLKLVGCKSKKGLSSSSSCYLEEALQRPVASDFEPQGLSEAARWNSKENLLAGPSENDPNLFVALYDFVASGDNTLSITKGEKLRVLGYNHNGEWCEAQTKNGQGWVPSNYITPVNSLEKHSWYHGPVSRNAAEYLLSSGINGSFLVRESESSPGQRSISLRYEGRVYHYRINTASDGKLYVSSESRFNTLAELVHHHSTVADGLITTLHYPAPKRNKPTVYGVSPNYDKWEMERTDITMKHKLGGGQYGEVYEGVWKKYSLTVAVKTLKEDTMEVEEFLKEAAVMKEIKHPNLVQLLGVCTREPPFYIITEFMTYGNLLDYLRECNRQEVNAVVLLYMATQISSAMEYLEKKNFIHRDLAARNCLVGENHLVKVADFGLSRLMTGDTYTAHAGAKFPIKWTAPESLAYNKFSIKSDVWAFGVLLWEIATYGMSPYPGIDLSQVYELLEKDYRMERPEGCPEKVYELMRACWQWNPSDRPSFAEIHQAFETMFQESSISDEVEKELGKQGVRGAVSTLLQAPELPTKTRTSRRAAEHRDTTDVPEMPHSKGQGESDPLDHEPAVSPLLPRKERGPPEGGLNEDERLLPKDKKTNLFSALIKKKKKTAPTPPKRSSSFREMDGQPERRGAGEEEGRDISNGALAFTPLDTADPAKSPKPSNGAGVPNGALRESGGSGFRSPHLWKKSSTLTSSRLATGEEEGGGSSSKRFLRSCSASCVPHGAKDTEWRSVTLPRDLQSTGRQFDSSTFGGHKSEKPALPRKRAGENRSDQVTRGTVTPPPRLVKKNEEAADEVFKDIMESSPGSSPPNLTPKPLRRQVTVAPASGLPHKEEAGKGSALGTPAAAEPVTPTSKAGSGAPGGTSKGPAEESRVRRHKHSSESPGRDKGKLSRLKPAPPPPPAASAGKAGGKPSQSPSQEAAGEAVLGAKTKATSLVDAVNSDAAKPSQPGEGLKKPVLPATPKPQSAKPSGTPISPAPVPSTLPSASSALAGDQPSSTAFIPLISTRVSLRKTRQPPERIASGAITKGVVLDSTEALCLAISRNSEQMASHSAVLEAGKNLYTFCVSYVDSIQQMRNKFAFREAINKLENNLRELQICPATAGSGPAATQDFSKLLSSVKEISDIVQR
Sequence of Mitogen-activated protein kinase 7 (Homo sapiens) (Q13164 2-816 limits assumed): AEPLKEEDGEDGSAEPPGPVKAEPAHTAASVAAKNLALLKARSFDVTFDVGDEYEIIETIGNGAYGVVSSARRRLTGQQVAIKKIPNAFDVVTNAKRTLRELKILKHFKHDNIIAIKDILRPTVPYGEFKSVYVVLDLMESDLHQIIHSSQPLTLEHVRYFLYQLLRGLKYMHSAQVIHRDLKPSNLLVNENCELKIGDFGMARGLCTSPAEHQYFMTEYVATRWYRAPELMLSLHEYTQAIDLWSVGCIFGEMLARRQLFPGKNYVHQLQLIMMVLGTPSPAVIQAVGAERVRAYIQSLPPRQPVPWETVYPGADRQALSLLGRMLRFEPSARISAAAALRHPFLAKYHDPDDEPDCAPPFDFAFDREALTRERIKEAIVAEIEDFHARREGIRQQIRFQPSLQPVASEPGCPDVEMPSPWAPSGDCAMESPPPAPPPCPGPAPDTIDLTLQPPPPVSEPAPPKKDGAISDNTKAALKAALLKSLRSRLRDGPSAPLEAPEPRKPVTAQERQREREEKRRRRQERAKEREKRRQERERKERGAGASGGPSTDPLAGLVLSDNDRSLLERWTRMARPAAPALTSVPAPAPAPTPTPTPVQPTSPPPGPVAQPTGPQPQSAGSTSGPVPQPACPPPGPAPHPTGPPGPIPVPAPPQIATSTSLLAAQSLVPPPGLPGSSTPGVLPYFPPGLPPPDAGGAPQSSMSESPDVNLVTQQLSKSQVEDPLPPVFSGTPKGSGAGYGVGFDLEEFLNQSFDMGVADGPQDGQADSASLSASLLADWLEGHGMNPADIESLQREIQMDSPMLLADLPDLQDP
Sequence of Focal adhesion kinase 1 (Q05397 2-1052 limits assumed): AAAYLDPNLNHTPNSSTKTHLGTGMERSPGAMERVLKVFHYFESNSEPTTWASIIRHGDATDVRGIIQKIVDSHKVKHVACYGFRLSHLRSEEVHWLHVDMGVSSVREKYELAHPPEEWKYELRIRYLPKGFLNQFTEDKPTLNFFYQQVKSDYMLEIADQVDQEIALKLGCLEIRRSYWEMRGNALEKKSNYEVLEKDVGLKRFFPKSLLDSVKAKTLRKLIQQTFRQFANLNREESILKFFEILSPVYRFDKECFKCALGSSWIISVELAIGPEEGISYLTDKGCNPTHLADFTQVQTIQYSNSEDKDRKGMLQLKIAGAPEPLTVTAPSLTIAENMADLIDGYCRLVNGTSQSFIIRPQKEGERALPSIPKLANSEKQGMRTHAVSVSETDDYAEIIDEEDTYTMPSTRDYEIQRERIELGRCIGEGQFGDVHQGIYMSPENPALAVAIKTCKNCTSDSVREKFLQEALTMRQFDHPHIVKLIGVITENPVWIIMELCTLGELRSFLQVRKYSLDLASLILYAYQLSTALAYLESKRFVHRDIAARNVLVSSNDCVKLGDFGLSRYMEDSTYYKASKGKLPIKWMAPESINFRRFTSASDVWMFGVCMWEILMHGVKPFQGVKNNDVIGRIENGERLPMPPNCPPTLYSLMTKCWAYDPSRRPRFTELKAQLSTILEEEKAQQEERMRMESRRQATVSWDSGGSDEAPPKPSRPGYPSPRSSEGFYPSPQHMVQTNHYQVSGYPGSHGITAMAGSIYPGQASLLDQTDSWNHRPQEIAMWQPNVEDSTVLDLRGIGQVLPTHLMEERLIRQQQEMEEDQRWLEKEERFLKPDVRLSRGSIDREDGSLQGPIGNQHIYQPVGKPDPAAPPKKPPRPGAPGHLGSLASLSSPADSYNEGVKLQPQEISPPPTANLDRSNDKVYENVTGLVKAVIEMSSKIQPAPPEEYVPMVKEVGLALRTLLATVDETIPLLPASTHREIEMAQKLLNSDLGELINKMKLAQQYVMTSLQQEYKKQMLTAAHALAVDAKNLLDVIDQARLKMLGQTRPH
Sequence of Mitogen-activated protein kinase 8 (P45983 whole entry): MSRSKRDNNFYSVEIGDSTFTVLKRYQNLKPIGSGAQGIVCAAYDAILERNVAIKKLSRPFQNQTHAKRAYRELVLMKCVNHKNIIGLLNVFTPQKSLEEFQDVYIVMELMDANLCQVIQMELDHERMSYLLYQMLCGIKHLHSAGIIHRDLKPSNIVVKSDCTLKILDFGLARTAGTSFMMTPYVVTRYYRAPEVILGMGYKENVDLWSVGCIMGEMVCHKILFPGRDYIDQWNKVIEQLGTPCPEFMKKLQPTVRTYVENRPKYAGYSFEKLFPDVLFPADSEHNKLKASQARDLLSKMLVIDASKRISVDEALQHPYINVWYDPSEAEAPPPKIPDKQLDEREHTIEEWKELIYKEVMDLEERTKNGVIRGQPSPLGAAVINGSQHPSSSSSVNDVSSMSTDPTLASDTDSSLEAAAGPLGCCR

In the case of `Cc1cc([C@@H](C)Nc2ccccc2C(=O)O)c2nc(N3CCOCC3)cc(=O)n2c1` [AZD-6482], the % of control in [1] amounted to 100%; in [2] it was 88%; in assay [3] it was 100%.

As to `CCN(CC)CCCCNc1ncc2cc(-c3cc(OC)cc(OC)c3)c(NC(=O)NC(C)(C)C)nc2n1`, in [4], the % of control worked out at 100%.

Turning to `Cc1cc(F)c(C(=O)Nc2cccc(-c3nncn3C(C)C)n2)cc1-n1cnc(C2CC2)c1`, the % of control in [5] was determined as 88%.

Regarding `C=CC(=O)Nc1cc(-n2c(=O)ccc3cnc4ccc(-c5ccc(NS(C)(=O)=O)cc5)cc4c32)ccc1C`, the % of control in assay [6] was found to be 91%.

Take `O=C(NOC[C@H](O)CO)c1ccc(F)c(F)c1Nc1ccc(I)cc1F`: the results for the % of control in assay [7] and in assay [8] were 78% and 83%, respectively.

As for `Cn1cc(-n2cnc3c(NCc4nc5cc(Cl)c(Cl)cc5[nH]4)nc(N4CCOCC4)nc32)cn1`, the % of control is -1.61% in assay [9], 7.22% in [10] and 4.92% in [12]. Also, in assay [11], the % of inhibition stood at 3.44%.

Turning to `CC[C@@H]1[C@H](F)C(=O)N[C@@H]1COc1nccc2cc(C(N)=O)c(OC)cc12` [ZIMLOVISERTIB], the % of inhibition is 18.9% in [13] and 3.08% in [14].

The term IC50 denotes the midpoint of a concentration-inhibition curve. For the molecule `CCc1cccc(CC)c1NC(=O)c1nn(C)c2c1CCc1cnc(Nc3ccc(C(=O)NC4CCN(C)CC4)cc3OC(F)(F)F)nc1-2`, the IC50 in assay [15] is over 10 µM.

Take `CN(C)CCCOc1ccc(-c2cc(NCCCn3cccn3)nc(S(C)(=O)=O)n2)cc1`: the dTM in [16] is 4 K.

On to `COCC(=O)NC/C=C/c1ccc2ncnc(Nc3ccc(Oc4ccc(C)nc4)c(C)c3)c2c1` [CP-724714], for which, in assay [17], the % of control stood at 100%.

On to `C=CC(=O)Nc1ccc(C(=O)Nc2[nH]nc3c2CN(C(=O)N[C@H](CN(C)C)c2ccccc2)C3(C)C)cc1`, for which, in assay [18], the % of engagement was -1.9%.
